Experimental data: US20050042300A1, “Use of colostrinin, constituent peptides thereof, and analogs thereof as inhibitors of apoptosis and other cellular damage” (priority 2002, published 2005)

Experiments:
Format in all cases: cell-based
SH-SY5Y cells = experiment: Protection against retinoic acid toxicity in SH-SY5Y cells, graded under the microscope; conditions: for DIFFERENTIATION: Retinoic Acid 20 μM (Day 1) alone
Experimental: Retinoic Acid was left on the plate for the duration of the experiment or until washed off. Colostrinin was added to the plate at the indicated doses. When added on Day 1, it was present during the entire experiment. When added on Day 5, it was incubated on the plate for 30 minutes at 37° C. and then removed. The wells were washed twice with PBS before adding β-Amyloid. Cultures were then observed under the microscope and graded.

[1] = test system: 4HNE-protein adducts in PC12 cells; experiment: 4HNE-protein adduct formation, immunocytochemistry / fluorescent microscopy
Excerpt: Cell cultures: Pheochromocytoma (PC12) cells were provided by Dr. Regino Perez-Polo (University of Texas Medical Branch, Department of Human Biological Chemistry and Genetics) and maintained in EMEM supplemented with 10% fetal bovine serum, penicillin (100 IU/ml) and streptomycin (100 micrograms per milliliter (μg/ml)). Exponentially growing populations of PC12 cells were sub-cultured and used for all experiments. Immunocytochemistry: […] Cells were permeabilized by 0.3% Triton X-100, washed in PBS then incubated with primary antibody in PBS containing 0.05% Tween 20 (PBS-T). After washing 3 times in PBS-T, FITC-labeled anti-rabbit IgG (Santa Cruz Biotechnology Inc.) was added. Cells were washed (5 times, for 10 min) with PBS-T and mounted on microscope slides in anti-fade solution (Dako, Inc.). Images of cellular immunofluorescence were acquired using a NIKON Eclipse TE300 scanning microscope. Fluorescent microscopy and Western blot analysis was undertaken to investigate the extent of 4HNE protein-adduct formation in cultures of PC12 cells in the presence of CLN. Cells were pretreated with CLN or LAH in the presence or absence of 4HNE and then analyzed for the formation of 4HNE-protein adducts.

[2] = test system: 4HNE-protein adducts in PC12 cells; experiment: 4HNE-protein adduct levels, Western blot analysis; conditions: 4HNE alone 25, 12.5, 6.2 nM
Experimental: (§1) Western blot analysis: PC12 cells were plated at 7×10^6 cells/T75 flask. After exposure to 4HNE, colostrinin or their combination, cells were collected and lysed in 50 millimolar (mM) Tris, 5 mM EDTA, 150 mM NaCI, 0.5% NP-40, 10% glycerol and protease inhibitor cocktail (supplemented with 1 mM Na3VO4, 2 mM EDTA, 1 mM phenylmethylsulfonyl fluoride). Lysates were centrifuged at 14,000 g for 10 minutes (min) (4° C.) and 40 μg of protein was fractionated on a 10% SDS-polyacrylamide gel and transferred to protein-optimized membranes (Amersham, Inc.). p53 was detected using specific antibody (DO1; Santa Cruz Biotechnology, Inc.) at a dilution of 1:300. Adducts were detected using an antibody to HNE-protein adducts (Pharmingen, Inc.) at a dilution of 1:500. The anti-phospho-JNK antibody (New England Biolabs, Inc., Beverly, Mass.) was raised against a synthetic phosphopeptide (SFMMT*PY*VVTRYYR) corresponding to residues 179-193 of JNK. For visualization of primary antibody binding, all blots were incubated with horseradish peroxidase-conjugated secondary antibody (Amersham, Inc.) at a dilution of 1:2000, followed by chemiluminescence detection (Amersham, Inc.) and autoradiography.
To confirm the results generated by immunochemistry, Western blot analysis was used to investigate changes in 4HNE-protein adduct levels in cells treated with 4HNE alone or CLN plus 4HNE.

[3] = test system: intracellular GSH levels in PC12 cells; experiment: Intracellular glutathione (GSH), o-phthalaldehyde fluorescence
Experimental: Measurement of glutathione (GSH): In brief, PC12 cells were mock- or pre-treated with CLN or lactalbumin hydrolysate (LAH), both in 10 μg/ml concentration and then exposed to 4HNE (25 nM). PBS-washed (twice) cells were then extracted with 25% (w/v) metaphosphoric acid solution containing 5 mM EDTA. After ultracentrifugation (105,000 g for 30 min), 100 μl of 100 mM phosphate solution (pH 8.0) containing 5 mM EDTA and 10 μl of o-phthalaldehyde OPA(OPD; Molecular Probes, Inc.) was added to the supernatant, and the fluorescence intensity at 420 nm determined with excitation set at 350 nm (A. P. Senft et al., Anal Biochem., 280:80-86 (2000)).
To investigate whether the anti-oxidant effect of CLN was due to protection of intracellular GSH levels, PC12 cells were pre-treated (with CLN or LAH) and exposed to 4HNE, as described above, and changes in GSH levels were determined fluorimetrically. […] OPA (o-phthalaldehyde or phthalic dicarboxaldehyde) is highly fluorescent when it is conjugated to GSH (A. P. Senft et al., Anal Biochem., 280:80-86 (2000)).

[4] = test system: GSH extrusion from PC12 cells; experiment: Reduced GSH in extracellular fluid (GSH extrusion), OPA-GSH fluorescence; conditions: 4HNE, relative to CLN- or mock-treated cells, data not shown
Experimental: To determine whether the loss of intracellular GSH was due to it's extrusion from the cells or oxidation, the level of reduced GSH in the extra-cellular fluid was evaluated.

JNK = experiment: 4HNE-induced JNK phosphorylation, Western blot with anti-phospho-(Thr-183/Tyr-185) JNK antibody; conditions: PC12 cells
Experimental: as §1, with “For visualization of primary antibody binding, all blots were incubated with horseradish peroxidase-conjugated secondary antibody (Amersham, Inc.) at a dilution of 1:2000, followed by chemiluminescence detection (Amersham, Inc.) and autoradiography.” left out
The effect of CLN on 4HNE-induced activation of JNK in PC12 cells was investigated. The activation of JNK was monitored by Western blot analysis using a highly specific anti-phospho- (Thr-183/Tyr-185) JNK antibody (Materials and Methods).

p53 = experiment: 4HNE-induced activation of p53, Western blot; conditions: PC12 cells; 4HNE alone
Experimental: as §1
Whether CLN could modulate p53 levels after 4HNE exposure was also investigated.

PC12 cells = experiment: 4HNE-induced apoptosis, annexin V-PE / 7-AAD flow cytometry
Excerpt: Apoptosis is a specific mode of cell death recognized by a characteristic pattern of morphological, biochemical, and molecular changes. Currently the hallmark of apoptosis in vitro is DNA fragmentation and changes in plasma membrane reorganization that allows for the surface expression of phosphatidyl-D-serine and result in increased membrane permeability. The protection of cells against 4HNE by CLN using increased permeability and cell membrane expression of phosphatidyl-D-serine was investigated.
Cells were simultaneously labeled with fluorochrome-conjugated annexin V-PE (detecting PS asymmetry in the plasma membrane, an early marker of apoptosis), 7-aminoactinomycin D (7-AAD) (detecting increased membrane permeability associated with both apoptosis and necrosis). A dual laser flow cytometer (either a Becton-Dickinson FACScan) was used for the simultaneous detection of the PE-conjugated annexin V (which is excited at […]), 7-AAD (excited at 488 nm and emitting at 670 nm). Fluorochrome compatibility was excellent, although careful intralaser compensation is required for simultaneous use of PE and 7-AAD.

CC1=C(/C=C/C(C)=C/C=C/C(C)=C/C(=O)O)C(C)(C)CCC1 [Retinoic Acid]
DIFFERENTIATION (SH-SY5Y cells; observed Day 2): ++++ (Approximately 100% of the cells) | DIFFERENTIATION (SH-SY5Y cells; observed Day 8): + (Approximately 25% of the cells) | onset of toxicity of retinoic acid (SH-SY5Y cells; SH-SY5Y cells, retinoic acid 20 μM): started showing signs of toxicity by day 6 | toxicity of retinoic acid (SH-SY5Y cells; SH-SY5Y cells, retinoic acid 40 μM): toxicity developed too rapidly

CCCCCC(O)/C=C/C=O (stereo not drawn) [4HNE]
fluorescence due to antibody binding to 4HNE-protein adducts ([1]; 4HNE 25 nM alone): bright fluorescence | levels of 4HNE-protein adducts (Western blot) [2]: significant increase | loss of GSH ([3]; 25 nM 4HNE): more than 50% | intracellular GSH levels (OPA-GSH fluorescence) ([3]; 4HNE 25 nM alone, 30 min): significant reduction | OPA-GSH-mediated fluorescence of extracellular fluid [4]: significant increase | JNK phosphorylation (JNK; 4HNE 25 nM alone): potent inducer of JNK phosphorylation | activation of p53 (p53): induced its activation | toxic effects / apoptosis (PC12 cells; 4HNE 25 nM): did not show toxic effects or induce apoptosis | apoptosis (PC12 cells; 4HNE 100 nM): Induction of apoptosis

Nc1ncnc2c1nc(Sc1ccc(Cl)cc1)n2[C@@H]1O[C@@H]2COP(=O)(O)O[C@H]2[C@H]1O [8-(4-chlorophenylthio)-cAMP]
4HNE-induced JNK phosphorylation (JNK; pretreatment with inhibitor of JNK activation, 4HNE): prevented 4HNE-induced JNK phosphorylation

OO [H2O2]
fluorescence due to antibody binding to 4HNE-protein adducts ([1]; H2O2 100 μM): bright fluorescence
